Laboratory results taken from patent publication US5541213A, “Propenoic acid derivatives diazole propenoic acid compounds which have useful pharmaceutical utility” (Eisai Co., Ltd., priority 1993, dated 1996).

How the values were obtained:
[1] = system: Fisher 344 male rats (cisplatin-induced trouble model); test: Activity against cisplatin-induced gastric trouble model; type: in vivo, rat; details: cisplatin 6 mg/5 ml/kg s.c., 1 mg/5 ml/kg orally, repeated over four days, blood sampled on the fifth day
Method: Cisplatin was subcutaneously administered to Fisher 344 male rats aged 7 weeks and weighing 170 to 200 g in an amount of 6 mg/5 ml/kg. Immediately after the administration, the test compound was orally administered forcedly to the test group of rats in an amount of 1 mg/5 ml/kg, while a solvent (2% Tween 80 solution) to the control group of rats in an amount of 5 ml/kg. Six hours after the administration, the administration of the test compound and the solvent to the test group and the control group respectively was conducted in a similar manner to that described above. Thereafter, the same administration was repeated on the next day twice, and on the third and forth days each once. On the fifth day, the rats were etherized and blood was sampled from each rat. The blood samples thus prepared were analyzed for serum urea nitrogen and creatinine.

[2] = system: Fisher male rats; test: Diuretic activity; type: in vivo, rat; details: 1 mg/25 ml/kg orally in 0.4% Tween 80 in physiological saline; urine collected for 2 hours
Method: Fisher male rats aged 8 weeks and weighing 190 to 210 g were fasted for 18 hours prior to the use. The test compound was orally administered forcedly to the test group of rats in a state dispersed in a 0.4% solution of Tween 80 in physiological saline in an amount of 1 mg/25 ml/kg, while a 0.4% solution of Tween 80 in physiological saline to the control group of rats in the same amount as that administered to the test group. Immediately after the administration, the rats were put in individual metabolism cages respectively to collect urine from each rat for 2 hours. The urinary volume of each rat was determined and thereafter the urine was examined for uric acid concentration to calculate the amount of uric acid egested. The control group was composed of six rats, while the test group three rats. The amounts of uric acid excreted from the rats of each group were averaged out to determine the increment of the excretion of uric acid based on the averages.

[3] = system: Fisher 344 male rats (glycerol-induced renal trouble model); test: Activity against glycerol-induced renal trouble model; type: in vivo, rat; details: 0.3 mg/5 ml/kg orally 60 minutes before 50% glycerol i.m. 10 ml/kg, blood sampled after about 24 hours
Method: Fisher 344 male rats aged 8 weeks and weighing 200 to 230 g were kept without water for 18 hours prior to the use. Thereafter, the test compound was orally administered forcedly to the test group of rats in an amount of 0.3 mg/5 ml/kg, while a solvent [2% Tween 80 solution] to the control group of rats in an amount of 5 ml/kg. After 60 minutes from the administration of the test compound or solvent, a 50% solution of glycerol in physiological saline was intramuscularly administered to each rat through both left and right femoral muscles in an amount of 10 ml of kg. After the completion of the intramuscular administration, the rats were watered. After about 24 hours, the rats were etherized and blood was sampled from each rat. The blood samples thus prepared were each centrifuged to collect serum, which was analyzed for urea nitrogen and creatinine.

[4] = biological target: T1, right atrium of Hartley male guinea pigs (heart rate lowering effect of adenosine) (Cavia porcellus, UniProt P47745); test: Adenosine antagonism (heart rate lowering effect of adenosine in isolated right atrium); type: cell-based; details: guinea pig right atrium, 37° C., dipyridamole added, 20 minutes with test compound, adenosine added cumulatively; spontaneous heart rate; read-out: pA2 value (adenosine antagonism) (converted)
T1 construct: the right atrium was extirpated from the heart; from tissue; host or cells: isolated right atrium of Hartley male guinea pigs
T1 sequence (P47745 1-326): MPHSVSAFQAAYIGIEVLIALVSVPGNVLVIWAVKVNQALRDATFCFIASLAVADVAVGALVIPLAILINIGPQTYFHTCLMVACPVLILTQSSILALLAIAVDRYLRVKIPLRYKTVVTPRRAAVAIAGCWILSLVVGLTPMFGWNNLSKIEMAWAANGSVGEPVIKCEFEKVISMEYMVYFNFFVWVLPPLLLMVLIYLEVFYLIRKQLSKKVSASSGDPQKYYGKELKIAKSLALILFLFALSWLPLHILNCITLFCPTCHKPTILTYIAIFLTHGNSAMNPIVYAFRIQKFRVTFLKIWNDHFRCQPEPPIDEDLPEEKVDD
Method: Hartley male guinea pigs weighing 250 to 400 g were beaten to death. The heart was immediately extirpated from each guinea pig and put in the Krebs-Heuseleit solution saturated with a gas mixture comprising 95% of oxygen and 5% of carbon dioxide. Thereafter, the right atrium was extirpated from the heart. The samples thus preparer were each vertically suspended in a Magnus tube (capacity: 6 ml) filled with a nutrient liquid at 37° C. and the same gas mixture as that used above was passed through the tube.
The change in tension was isometrically determined under a load of about 0.5 g and the spontaneous heart rate was measured and recorded with a cardiotachometer by utilizing the signal of the change as a trigger.
After the stabilization of the sample, 10^-5 mol of dipyridamole was added to each Magnus tube. Thereafter, the test compound was added directly to each of the Magnus tubes of the test group in a state dissolved in DMSO, while a solvent (DMSO) to each of the Magnus tubes of the control group in the same amount as that added to each Magnus tube of the test group. The resulting Magnus tubes was allowed to stand for 20 minutes. […]
The EC50 value with respect to the heart rate lowering effect of adenosine was calculated and the adenosine antagonism was represented by pA2 value (-log M).

## O=C(/C=C/c1c[nH]nc1-c1cccc(F)c1)NC(Cc1ccccn1)c1cc(Cl)ccn1 (single isomer, unassigned; (+)) [Example 2, (+)-(E)-N-{1-(4-Chloropyridin-2-yl)-2-(pyridin-2-yl)ethyl}-3-{3-(3-fluorophenyl)-1H-pyrazol-4-yl}-2-propenamide]
[1]; *P < 0.05 vs control (2.15 ± 0.16)
  serum creatinine: 1.49 ± 0.04 mg/dL
[1]; *P < 0.05 vs control (93.4 ± 6.5)
  Serum urea nitrogen: 52.9 ± 2.3 mg/dL
[2]
  amount of uric acid excreted (control group taken as 100%): 166%
  urinary volume of the test group (control group taken as 100%): 605%
[3]; *P < 0.05 vs control (4.76 ± 0.21)
  serum creatinine: 3.47 ± 0.30 mg/dL
[3]; *P < 0.05 vs control (185.4 ± 3.2)
  Serum urea nitrogen: 142.4 ± 10.5 mg/dL
[4]
  Kb: 38.9 pM
